Earlier results as cited in patent EP4609858A1, “BUP[…] AND PREPARATION METHOD THEREFOR” (Shenzhen Sciencare Pharmaceutical Co., Ltd., priority 2023, dated 2024).
Structures can show the parent of a compound that is named as a salt. Where two headings read alike, the source gives them in different places.

CO[C@]12CC[C@@]3(C[C@@H]1[C@](C)(O)C(C)(C)C)[C@H]1Cc4ccc(O)c5c4[C@@]3(CCN1CC1CC1)[C@H]2O5 [buprenorphine hydrochloride]
solubility (in alcohol): soluble
solubility (in methanol): freely soluble
solubility (in water): slightly soluble
